Consider 3 compounds from PMC9154192 (PLoS Biology, 2022).

For one data set, the system named is M. tuberculosis H37Rv. Description: microbe, parasite or virus in culture. The class given is cell-based, Mycobacterium tuberculosis. Conditions: for MIC: Mycobacterium tuberculosis, H37RV, read-out: MIC.
The test system of data set [1] is XDR M. tuberculosis (KMRC 00203–00197). It is filed as cell-based, Mycobacterium tuberculosis. The conditions noted are these: for log reduction (CFU): 7 days.
Data set [2] is described as follows: in vitro. The class given is cell-based. Conditions: human. The protocol:
(§1) A549 human pulmonary epithelial cells (KCLB 10185), human embryonic kidney (HEK) 293 cells (KCLB 21573), human THP-1 leukemia cells (KCLB 40202), human neuroblastoma SH-SY5Y cells (KCLB 22266), Murine Raw 264.7 macrophages (KCLB 40071), and L929 murine fibroblasts (KCLB 10001) were purchased from the KCLB (Seoul, Korea). Cytotoxicity testing was performed using the MTT assay and the WST-1 cell viability assay as previously described.

Data set [3] can be described thus: in vitro. It is filed as cell-based, murine. Conditions: mouse. The protocol:
as §1

The test system of the next data set is intestinal microbiome. Description: Gut microbiome, 16s rRNA gene-based metagenomics analysis of feces. The class given is in vivo, BALB/c mice. Conditions: mouse, in vivo. How it is done: Six-week-old BALB/c female mice were used for this study (6 mice for each group). Each drug was administered orally at 30 mg/kg once daily for 7 days. Stool was collected, and 16 rRNA gene-based metagenomics analysis was performed. Corn oil was used as the vehicle. The drug-free group received corn oil only. This animal experiment was conducted with the approval of the IACUC of the Soonchunhyang University (approval number: SCH21-0011). Microbiome analysis of collected feces was carried out as previously described with some modifications. Total DNA was extracted from the stool using the QIAamp DNA stool mini kit (Qiagen, Germany) after mechanical disruption using lysing matrix B tubes (MP Biomedicals, USA). V4 region of 16S RNA gene was amplified from extracted DNA with the following primers: forward primer ([…]) and reverse primer ([…]). PCR was performed using the Kappa HiFi hot start kit (KAPA Biosystems, USA) for 16s gene amplification and library preparation. A dsDNA HS assay kit and Qubit 4 fluorimeter (Invitrogen, USA) were used for DNA quantification. After each step, quality was checked using Agilent High Sensitivity DNA Kit and Agilent Bioanalyzer 2100 (Agilent Technologies, USA). Clean-up was performed using AMPure XP beads (Beckman Coulter, UK). The metagenomic library was prepared using a Nextera XT DNA Library Prep Kit (Illumina, USA) and loaded into an iSeq-100 reagent cartridge (Illumina, USA) together with a PhiX Control library (Illumina, USA). A 300-bp paired-end sequencing was performed on an iSeq-100 platform (Illumina, USA). Sequencing data were analyzed using the EzBioCloud server (Chunlab, Korea).

The subject of another data set is M. arupense. Description: microbe, parasite or virus in culture. The class given is cell-based, Mycobacterium arupense. The conditions noted are these: Mycolicibacter arupensis.
A further data set deals with M. aubagnense. Description: microbe, parasite or virus in culture. The conditions noted are these: Mycolicibacterium aubagnense. It is filed as cell-based, Mycobacterium aubagnense.
The subject of a further data set is M. bovis. Description: microbe, parasite or virus in culture. The class given is cell-based. The conditions noted are these: Mycobacterium tuberculosis variant bovis.
In a further data set the test system is M. chitae. Description: microbe, parasite or virus in culture. The class given is cell-based, Mycobacterium chitae. Conditions: Mycolicibacterium chitae.
The subject of a further data set is M. colombiense. Description: microbe, parasite or virus in culture. It is filed as cell-based. The conditions noted are these: Mycobacterium colombiense.
The next data set concerns M. goodie. Description: microbe, parasite or virus in culture. The class given is cell-based. The conditions noted are these: Mycobacterium.
In the next data set the test system is M. gordonae. As to the kind of experiment: microbe, parasite or virus in culture. Conditions: Mycobacterium gordonae. It is filed as cell-based.
The subject of another data set is M. heraklionease. As to the kind of experiment: microbe, parasite or virus in culture. The class given is cell-based. Conditions: Mycobacterium.
In a further data set the test system is M. intracellulare. Description: microbe, parasite or virus in culture. The class given is cell-based. Conditions: Mycobacterium intracellulare.
A further data set relates to M. kansasii. Description: microbe, parasite or virus in culture. The class given is cell-based. Conditions: Mycobacterium kansasii.
Another data set has as its system M. kyorinense. Description: microbe, parasite or virus in culture. It is filed as cell-based. The conditions noted are these: Mycobacterium kyorinense.
The next data set relates to M. marseiliense. Description: microbe, parasite or virus in culture. The class given is cell-based. The conditions noted are these: Mycobacterium.
Another data set concerns M. massiliense. Description: microbe, parasite or virus in culture. It is filed as cell-based, Mycobacterium massiliense. The conditions noted are these: Mycobacteroides abscessus.
The next data set deals with M. neoaurum. Description: microbe, parasite or virus in culture. The conditions noted are these: Mycolicibacterium neoaurum. The class given is cell-based, Mycobacterium neoaurum.
In another data set the test system is M. xenopi. Description: microbe, parasite or virus in culture. The class given is cell-based. Conditions: Mycobacterium xenopi.
The test system of the next data set is M. tuberculosis H37Ra. As to the kind of experiment: microbe, parasite or virus in culture. Conditions: Mycobacterium tuberculosis, H37RA. The class given is cell-based, Mycobacterium tuberculosis.

Molecules are shown by their SMILES. Values after ≈ are worked out from the molar mass of the structure shown. Values joined by “and” are separate entries in the source; they are usually repeats but may differ in a detail not shown here. Equal entries are not always repeated. Where two headings read alike, the source gives them in different places.

`CO[C@H]1/C=C/O[C@@]2(C)Oc3c(C)c(O)c4c(O)c(c(/C=N/N5CCN(C)CC5)c(O)c4c3C2=O)NC(=O)/C(C)=C\C=C\[C@H](C)[C@H](O)[C@@H](C)[C@@H](O)[C@@H](C)[C@H](OC(C)=O)[C@@H]1C` [RIF, rifampicin, reference compound]: the MIC in the data set with M. tuberculosis H37Rv was determined as 0.1 µg/mL (≈ 0.122 µM); against M. arupense it was 0.1 µg/mL (≈ 0.122 µM); against M. aubagnense, 1.6 µg/mL (≈ 1.94 µM); against M. bovis, 0.1 µg/mL (≈ 0.122 µM); with M. chitae, 6.3 µg/mL (≈ 7.66 µM); with M. colombiense, 0.2 µg/mL (≈ 0.243 µM). In addition, the MIC was 100 µg/mL (≈ 122 µM) with M. goodie; 3.1 µg/mL (≈ 3.77 µM) against M. gordonae; 0.2 µg/mL (≈ 0.243 µM) in the data set with M. heraklionease; under 0.1 µg/mL in the data set on M. intracellulare; under 0.1 µg/mL in the data set with M. kansasii; 50 µg/mL (≈ 60.8 µM) against M. kyorinense. The MIC is over 100 µg/mL in the data set on M. marseiliense, 0.2 µg/mL (≈ 0.243 µM) in the data set on M. massiliense, 0.2 µg/mL (≈ 0.243 µM) against M. neoaurum and 0.2 µg/mL (≈ 0.243 µM) against M. xenopi. The “CFU (log)” value in data set [1] was 4.63 and 4.77. Further, the “CFU (replicates1-3), single values” in data set [1] is 56400 CFU and 14000 CFU and 26700 CFU and 25200 CFU and 51000 CFU and 59000 CFU and 55000 CFU and 48000 CFU and 53000 CFU and 44900 CFU and 67000 CFU (2×) and 75100 CFU and 66500 CFU and 63000 CFU and 65000 CFU and 35000 CFU and 41000 CFU. Also, the “log reduction (CFU)” value in data set [1] (at 12.5 μg/ml) was 0.6. In addition, the CC50 in the data set “in vitro [2]” (A549), in “in vitro [2]” (HEK-293), in “in vitro [2]” (SH-SY5Y), in “in vitro [2]” (THP-1), in “in vitro [3]” (L929) and in the data set “in vitro [3]” (Raw264.7) was over 500 µg/mL throughout. Moreover, in the data set with intestinal microbiome, the “beta set-significance analysis, pair-wise comparison of gut microbiome” value is “significant”. In the data set on intestinal microbiome, the “difference in phylum or class level taxa compared to drug-free group” value is recorded as “significant differences”. Moreover, the “phylogenetic diversity compared to drug-free control group” value in the data set with intestinal microbiome is “significantly decreased”.

Consider `COC(=O)[C@@H]1CCC(=O)N1Cc1cc2ccc(OCc3ccccc3)cc2c2cc(OC)c(OC)cc12` [PP3S, Methyl (S)-1-{[3-(Benzyloxy)-6,7-dimethoxy-9-phenanthryl]methyl}-5-oxopyrrolidine-2-carboxylate], for which the “in vitro antitubercular activities (S-form vs R-form)” value in the data set on M. tuberculosis H37Rv is “had in vitro antitubercular activities”. Further, the MIC was 1.6 µg/mL (≈ 3.2 µM) with M. tuberculosis H37Rv; 1.6 µg/mL (≈ 3.2 µM) in the data set with M. tuberculosis H37Ra; over 100 µg/mL with M. arupense; over 100 µg/mL in the data set with M. aubagnense; 3.12 µg/mL (≈ 6.25 µM) in the data set on M. bovis; over 100 µg/mL against M. chitae. The MIC in the data set with M. colombiense, in the data set on M. goodie, against M. gordonae, against M. heraklionease, in the data set on M. intracellulare and in the data set with M. kansasii was over 100 µg/mL each time. For the same compound, the MIC in the data set with M. kyorinense, in the data set with M. marseiliense, against M. massiliense, against M. neoaurum and with M. xenopi was over 100 µg/mL throughout. Further, the “CFU (log)” value in data set [1] was 4.83 and 4.91. The “CFU (replicates1-3), single values” in data set [1] is 41000 CFU and 66100 CFU and 72200 CFU and 71300 CFU and 95100 CFU and 88700 CFU and 98900 CFU and 41200 CFU and 40500 CFU and 105000 CFU and 75800 CFU and 72700 CFU and 52300 CFU and 61000 CFU and 63200 CFU and 62900 CFU and 137000 CFU and 98200 CFU. Further, the “log reduction (CFU)” value in data set [1] (at 0.8 μg/ml) was found to be 0.5; in [1] (at 1.6 μg/ml), 0.6. Moreover, the CC50 (in general, the concentration giving 50% cytotoxicity) was over 500 µg/mL in “in vitro [2]” (A549); 7.8 µg/mL (≈ 15.6 µM) in the data set “in vitro [2]” (HEK-293); 7.8 µg/mL (≈ 15.6 µM) in “in vitro [2]” (SH-SY5Y); over 500 µg/mL in the data set “in vitro [2]” (THP-1); over 500 µg/mL in the data set “in vitro [3]” (L929); over 500 µg/mL in the data set “in vitro [3]” (Raw264.7).

In the case of `[H]/N=C(/N)N[C@H]1[C@H](O)[C@@H](O)[C@H](O[C@@H]2O[C@@H](C)[C@](O)(C=O)[C@H]2O[C@@H]2O[C@@H](CO)[C@H](O)[C@@H](O)[C@@H]2NC)[C@@H](N/C(N)=N\[H])[C@@H]1O` [STR, streptomycin], the MIC in the data set with M. tuberculosis H37Rv was 0.4 µg/mL (≈ 0.688 µM); in the data set with M. arupense it was 0.1 µg/mL (≈ 0.172 µM); against M. aubagnense, over 100 µg/mL; against M. bovis it was 0.4 µg/mL (≈ 0.688 µM); in the data set on M. chitae, over 100 µg/mL; against M. colombiense it was 0.8 µg/mL (≈ 1.38 µM). Further, the MIC in the data set with M. goodie amounted to 0.2 µg/mL (≈ 0.344 µM); against M. gordonae it was 100 µg/mL (≈ 172 µM); with M. heraklionease it was 50 µg/mL (≈ 86 µM); against M. intracellulare, 0.8 µg/mL (≈ 1.38 µM); in the data set with M. kansasii, 0.2 µg/mL (≈ 0.344 µM); against M. kyorinense it was 0.8 µg/mL (≈ 1.38 µM). The MIC was 25 µg/mL (≈ 43 µM) with M. marseiliense, 0.8 µg/mL (≈ 1.38 µM) against M. massiliense, 0.8 µg/mL (≈ 1.38 µM) against M. neoaurum and 0.2 µg/mL (≈ 0.344 µM) with M. xenopi.
